Measurements as given in BigSolDB 2.1.

O=C(O)COc1ccc(Cl)cc1Cl
solubility (mole fraction)
Conditions	278.15 K	283.15 K	288.15 K	293.15 K	298.15 K	303.15 K	308.15 K	313.15 K	318.15 K	323.15 K
in 2-butanone	0.0937	0.103	0.112	0.123	0.134	0.144	0.156	0.169	0.184	0.201
in MTBE	0.087	0.0961	0.106	0.116	0.126	0.137	0.148	0.161	0.175	0.19
in acetone	0.107	0.116	0.127	0.137	0.15	0.163	0.176	0.191	0.205	0.222
in acetonitrile	0.0178	0.0246	0.0306	0.0401	0.0499	0.0572	0.0672	0.078	0.0888	0.103
in ethanol	0.0654	0.0797	0.0975	0.117	0.141	0.167	0.192	0.223	0.255	0.292
in ethyl acetate	0.0548	0.0622	0.0703	0.0798	0.0894	0.101	0.113	0.126	0.14	0.155
in isobutanol	0.0317	0.0402	0.0508	0.0627	0.0778	0.0933	0.112	0.135	0.161	0.19
in isobutyl acetate	0.0365	0.0427	0.0494	0.0574	0.0657	0.0747	0.0846	0.0958	0.11	0.128
in isopropanol	0.0424	0.0525	0.0646	0.0783	0.0942	0.113	0.132	0.153	0.176	0.201
in methyl acetate	0.0602	0.0685	0.0761	0.0846	0.0976	0.106	0.119	0.131	0.144	0.16
in n-butanol	0.0521	0.0644	0.079	0.0986	0.127	0.146	0.17	0.198	0.231	0.27
in n-butyl acetate	0.0486	0.0535	0.0604	0.0678	0.0749	0.0832	0.0931	0.106	0.12	0.136
in n-pentanol	0.0537	0.0701	0.0866	0.107	0.131	0.155	0.182	0.211	0.243	0.281
in n-propanol	0.0486	0.0602	0.0731	0.0911	0.11	0.131	0.152	0.179	0.207	0.236
in sec-butanol	0.043	0.0535	0.0665	0.0809	0.098	0.117	0.139	0.162	0.186	0.213
